Each structure is given as a SMILES string.

Holding throughout (assay): Leaf piece damage test
What all share (assay type): in vivo
What all share (parameters): key: 4: The leaf completely dead; 3: Two third of the leaf withered; 2: One half of the leaf withered; 1: Only edge of the leaf withered; 0: Not damage at all
What all share (settings): 50 μg/mL, 4 days

In one assay the test system is Ambrosia artemisiifolia. The procedure:
(§1) Compounds 7, 14, 15, 16, 40, 45, 48 and 53 were dissolved individually in small amount of methanol, and diluted with distilled water to concentration of 50 μg/mL. Methanol water solution and pure water were used as control. A piece of 5 mm leaf was taken from the second leaf of weed sample and was treated with the solution three times. 5 pieces of the leaf were prepared for each treatment. The damage data were collected 4 days later. The measurement of damage level is described in the Table 9.
(§2) The measurement of the plant damage was calculated by the formula: Damage Index=Σ(damage level×number of plants)×100/4/number of plants in each treatment.

Assay [1] concerns Aster ageratoides var. scaberulus. The procedure: as §1, §2
A further assay relates to Big Bristlegass. The procedure: as §1, §2
For the next assay, the system named is Common polypogon. Here is the method: as §1, §2
The test system of assay [2] is Crabgrass (Digitaria sanguinalis). Here is the method:
as §1, §2

A further assay deals with Cyperus rotundus. The procedure: as §1, §2
A further assay has as its system Duchesnea indica. The procedure:
as §1, §2

In the next assay the test system is Equal alopecurus. Here is the method:
as §1, §2

The test system of the next assay is Eupatorium adenophorum. Here is the method: as §1, §2
The next assay concerns Galeopsis bifida. Here is the method: as §1, §2
In a further assay the test system is Goose grass. Here is the method:
as §1, §2

The test system of assay [3] is Green foxtail (Setaria viridis). The procedure: as §1, §2
In a further assay the test system is Lapsana apogonoides. Here is the method: as §1, §2
In another assay the test system is Leptochloa chinensis. Here is the method: as §1, §2
Another assay relates to Oxalis corniculata. The procedure: as §1, §2
A further assay deals with Plantago asiatica. Here is the method:
as §1, §2

Another assay concerns Polygonum lapathifolium. Here is the method:
as §1, §2

Another assay concerns Sonchus oleraceus. Here is the method:
as §1, §2

The subject of another assay is Veronica didyma. The procedure:
as §1, §2

A further assay relates to Veronica percica. The procedure: as §1, §2
The subject of a further assay is Wild oats. The procedure:
as §1, §2

The test system of a further assay is Xanthium sibiricum. Here is the method: as §1, §2

As for `CCCC(Cl)C1NC(=O)C(C(C)=O)=C1O` (stereo not drawn) [Compound 40], the Damage level with Ambrosia artemisiifolia is 3; in assay [1], 3; in the assay on Big Bristlegass, 3; in the assay with Common polypogon, 3; in assay [2] it was 4; with Cyperus rotundus, 2. Further, the Damage level with Duchesnea indica amounted to 2; with Equal alopecurus it was 3; in the assay on Eupatorium adenophorum, 4; with Galeopsis bifida it was 3; in the assay on Goose grass, 4; in assay [3], 3. Also, the Damage level turned out to be 3 in the assay with Lapsana apogonoides; 4 in the assay on Leptochloa chinensis; 4 in the assay on Oxalis corniculata; 3 with Plantago asiatica; 2 with Polygonum lapathifolium; 3 in the assay with Sonchus oleraceus. The Damage level in the assay with Veronica didyma is listed as 2; in the assay on Veronica percica, 3; in the assay with Wild oats, 3; in the assay on Xanthium sibiricum, 2.
Consider `CCC(C)C1NC(=O)C(C(=O)CCc2cc(Cl)cc(Cl)c2)=C1O` (stereo not drawn) [Compound 48], for which the Damage level is recorded as 3 in the assay on Ambrosia artemisiifolia; 4 in assay [1]; 3 with Big Bristlegass; 4 in the assay on Common polypogon; 4 in [2]; 2 with Cyperus rotundus. Also, the Damage level amounted to 3 in the assay on Duchesnea indica; 4 with Equal alopecurus; 4 in the assay on Eupatorium adenophorum; 2 with Galeopsis bifida; 3 with Goose grass; 4 in [3]. In addition, the Damage level is 4 with Lapsana apogonoides; 4 with Leptochloa chinensis; 4 in the assay on Oxalis corniculata; 2 with Plantago asiatica; 2 in the assay with Polygonum lapathifolium; 4 in the assay with Sonchus oleraceus. For the same compound, the Damage level with Veronica didyma, with Veronica percica, in the assay on Wild oats and with Xanthium sibiricum was 3 each time.
Consider `CCCC(C#N)C1NC(=O)C(=C(C)O)C1=O` (stereo not drawn) [Compound 53], for which the Damage level amounted to 3 in the assay on Ambrosia artemisiifolia; 4 in assay [1]; 3 with Big Bristlegass; 4 with Common polypogon; 4 in [2]; 2 in the assay on Cyperus rotundus. The Damage level in the assay with Duchesnea indica is reported as 3; in the assay on Equal alopecurus, 4; with Eupatorium adenophorum, 4; in the assay on Galeopsis bifida it was 3; in the assay on Goose grass it was 4; in assay [3] it was 3. For the same compound, the Damage level in the assay on Lapsana apogonoides was found to be 3; in the assay with Leptochloa chinensis it was 4; with Oxalis corniculata, 4; with Plantago asiatica it was 2; in the assay on Polygonum lapathifolium it was 3; in the assay with Sonchus oleraceus, 4. The Damage level with Veronica didyma, in the assay on Veronica percica, in the assay with Wild oats and in the assay with Xanthium sibiricum was 3 each time.
Regarding `CCCCC1NC(=O)C(C(C)=O)=C1O` (stereo not drawn) [Compound 14], the Damage level in the assay with Ambrosia artemisiifolia stood at 3; in assay [1], 3; in the assay on Big Bristlegass, 2; in the assay on Common polypogon, 3; in assay [2] it was 4; with Cyperus rotundus it was 2. Moreover, the Damage level with Duchesnea indica turned out to be 2; with Equal alopecurus, 3; in the assay on Eupatorium adenophorum it was 3; with Galeopsis bifida, 2; in the assay with Goose grass, 3; in assay [3], 3. The Damage level was determined as 3 in the assay with Lapsana apogonoides; 4 with Leptochloa chinensis; 4 in the assay on Oxalis corniculata; 2 in the assay on Plantago asiatica; 2 in the assay with Polygonum lapathifolium; 3 in the assay with Sonchus oleraceus. In addition, the Damage level in the assay with Veronica didyma is recorded as 3; with Veronica percica, 2; in the assay on Wild oats, 3; in the assay on Xanthium sibiricum, 2.
For `CCC(C)C1NC(=O)C(C(=O)CCF)=C1O` (stereo not drawn) [Compound 44], the Damage level came out at 4 in the assay on Ambrosia artemisiifolia; 4 in assay [1]; 2 with Big Bristlegass; 4 in the assay with Common polypogon; 4 in assay [2]; 2 with Cyperus rotundus. In addition, the Damage level turned out to be 3 in the assay with Duchesnea indica; 3 in the assay on Equal alopecurus; 4 with Eupatorium adenophorum; 3 with Galeopsis bifida; 3 with Goose grass; 4 in assay [3]. Moreover, the Damage level with Lapsana apogonoides stood at 3; in the assay on Leptochloa chinensis, 4; in the assay on Oxalis corniculata it was 4; in the assay with Plantago asiatica, 3; in the assay with Polygonum lapathifolium, 2; in the assay with Sonchus oleraceus it was 3. In addition, the Damage level came out at 3 in the assay on Veronica didyma, 3 with Veronica percica, 3 with Wild oats and 2 with Xanthium sibiricum.
With `CCCCCC1NC(=O)C(C(C)=O)=C1O` (stereo not drawn) [Compound 15], the Damage level in the assay with Ambrosia artemisiifolia is given as 2; in [1] it was 3; with Big Bristlegass it was 2; in the assay on Common polypogon it was 3; in assay [2], 4; with Cyperus rotundus, 2. Also, the Damage level in the assay on Duchesnea indica is given as 3; in the assay on Equal alopecurus it was 3; in the assay with Eupatorium adenophorum it was 4; in the assay with Galeopsis bifida it was 2; with Goose grass, 3; in [3], 4. The Damage level in the assay with Lapsana apogonoides is 2; in the assay with Leptochloa chinensis it was 4; in the assay with Oxalis corniculata, 3; in the assay with Plantago asiatica, 3; in the assay with Polygonum lapathifolium, 2; with Sonchus oleraceus, 3. The Damage level worked out at 2 in the assay on Veronica didyma, 2 in the assay with Veronica percica, 3 with Wild oats and 2 in the assay with Xanthium sibiricum.

Source of the values: US9468209B2, “Method for eradicating weeds with derivatives of 3-acetyl-5-sec-butyl-4-hydroxy-3-pyrrolin-2-one” (priority 2012, dated 2016).
